In patent publication US9663480B2, “BIS-MMF derivatives” (RATIOPHARM GMBH, priority 2013, dated 2017):

Assay: Kinetics of MMF-release during incubation in intestinal fluid from the minipig (LC-MS quantification of MMF)
Format: in vitro ADME, Gottingen SPF minipig
Conditions: diluted small intestinal fluid (1/20 v/v with 50 mM KH2PO4, pH 6.8), 37° C., samples at 0-120 min; FIG. 1; DMF as reference
Description: Investigation and Comparision of the Kinetics of MMF-Release of the Different Compounds of the Present Invention and DMF During Incubation in Intestinal Fluid from the Minipig
Intestinal fluid samples were prepared at CiToxLAB Scantox A/S. The samples were taken from 1 female Gottingen SPF minipig from CiToxLAB Scantox A/S standard stock, originally obtained from Ellegaard Gottingen Minipigs A/S, DK-4261 Dalmose, Denmark. The minipig was 10 months old and the body weight was 21 kg. The minipig was identified by an individual number tagged to the pinna of one ear (animal number is documented in the raw data).
The minipig was fasted for approximately 28 hours before sampling of intestinal fluid. […]
Incubations were continued and in case the result of analysis of the 120 min indicated the presence of remaining intact MMF prodrug, additional samples were taken (t=360 or 420 min and at 1,260 or 1,320 min) and analysed.
The concentration/peak area ratio data pairs were subjected to regression analysis with 1/x weighting and the resulting calibration equation was used to quantify the MMF content in incubation samples.

COC(=O)/C=C/C(=O)OCCN1CCN(CCOC(=O)/C=C/C(=O)OC)CC1 [Example 1, (E)-But-2-enedioic acid-2-{4-[2-((E)-3-methoxycarbonyl-acryloyloxy)-ethyl]-piperazin-1-yl}-ethyl ester methyl ester]
hydrolysis to MMF (MMF release) compared with DMF: substantially the same hydrolysis to MMF than DMF
